Reference: PubChem BioAssay AID330 (DTP/NCI, 2004)
Values joined by “and” are separate entries in the source; they are usually repeats but may differ in a detail not shown here. Equal values may be shown once. Inconclusive results and toxic doses are left out.

Tested on: P388 leukemia ip, CD2F1 mice, survival T/C
Test: NCI In Vivo Anticancer Drug Screen. Data for tumor model P388 Leukemia (intraperitoneal) in CD2F1 (CDF1) mice
Details: endpoint: median survival time, higher = longer survival
How it was run: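 Mice carrying the transplanted tumor received test compound or vehicle. Survival was recorded in each group, and the value is the treated-group measurement divided by that of the vehicle-treated control group.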

[1] = dose: 50.0 mg/kg/injection, schedule: Q01DX005 (ip), vehicle: saline with Tween-80
[2] = dose: 100.0 mg/kg/injection, schedule: Q01DX005 (ip), vehicle: saline with Tween-80
[3] = dose: 50.0 mg/kg/injection, schedule: Q01DX009 (ip), vehicle: Klucel (hydroxypropylcellulose) (HPC)
[4] = dose: 100.0 mg/kg/injection, schedule: Q01DX009 (ip), vehicle: Klucel (hydroxypropylcellulose) (HPC)
[5] = dose: 200.0 mg/kg/injection, schedule: Q01DX009 (ip), vehicle: Klucel (hydroxypropylcellulose) (HPC)
[6] = dose: 6.25 mg/kg/injection, schedule: Q01DX009 (ip), vehicle: saline with Tween-80
[7] = dose: 12.5 mg/kg/injection, schedule: Q01DX009 (ip), vehicle: saline with Tween-80
[8] = dose: 25.0 mg/kg/injection, schedule: Q01DX009 (ip), vehicle: saline with Tween-80
[9] = dose: 50.0 mg/kg/injection, schedule: Q01DX009 (ip), vehicle: saline with Tween-80
[10] = dose: 100.0 mg/kg/injection, schedule: Q01DX009 (ip), vehicle: saline with Tween-80
[11] = dose: 200.0 mg/kg/injection, schedule: Q01DX009 (ip), vehicle: saline with Tween-80
[12] = dose: 100.0 mg/kg/injection, schedule: Q04DX003 (ip), vehicle: saline with Tween-80
[13] = dose: 200.0 mg/kg/injection, schedule: Q04DX003 (ip), vehicle: saline with Tween-80

In the case of `COc1ccc(C(NC(N)=O)c2cc3c(cc2OC(C)=O)OCO3)cc1` (stereo not given), the T/C (dose: 60.0 mg/kg/injection, schedule: Q01DX005 (ip), vehicle: Klucel (hydroxypropylcellulose) (HPC)) is reported as 98 % of control, the T/C (dose: 120.0 mg/kg/injection, schedule: Q01DX005 (ip), vehicle: Klucel (hydroxypropylcellulose) (HPC)) is reported as 92 % of control and the T/C (dose: 240.0 mg/kg/injection, schedule: Q01DX005 (ip), vehicle: Klucel (hydroxypropylcellulose) (HPC)) is reported as 93 % of control.

For `CCC(=O)[O-].CCC(=O)[O-].CCC(=O)[O-].CCC(=O)[O-].O=S(=O)(O)O.[Re].[Re]`, the T/C (dose: 72.0 mg/kg/injection, schedule: Q01DX009 (ip), vehicle: saline) was 107 % of control, the T/C (dose: 103.0 mg/kg/injection, schedule: Q01DX009 (ip), vehicle: saline) was 100 % of control and the T/C (dose: 147.0 mg/kg/injection, schedule: Q01DX009 (ip), vehicle: saline) was 102 % of control. For the same compound, the T/C (dose: 171.5 mg/kg/injection, schedule: Q01DX009 (ip), vehicle: suspension in saline) was 109 % of control, the T/C (dose: 210.0 mg/kg/injection, schedule: Q01DX009 (ip), vehicle: saline) was 108 % of control and the T/C (dose: 245.0 mg/kg/injection, schedule: Q01DX009 (ip), vehicle: suspension in saline) was 120 % of control. For the same compound, the T/C (dose: 300.0 mg/kg/injection, schedule: Q01DX009 (ip), vehicle: saline) was 91 % of control.

With `O=C(O)C(O)C(O)C1[O][Sb][O]C1C(=O)O` (stereo not given) the T/C (dose: 12.5 mg/kg/injection, schedule: Q01DX005 (ip), vehicle: saline) was 110 % of control, the T/C [1] was 100 % of control and 101 % of control and 94 % of control and the T/C [2] was 100 % of control and 108 % of control and 109 % of control. The T/C (dose: 200.0 mg/kg/injection, schedule: Q01DX005 (ip), vehicle: saline with Tween-80) was 111 % of control and 117 % of control and the T/C (dose: 400.0 mg/kg/injection, schedule: Q01DX005 (ip), vehicle: saline with Tween-80) was 118 % of control and 120 % of control.

With `Cc1ccc(S(=O)(=O)/N=C\[N-][n+]2ccccc2C)cc1` the T/C [3] was 101 % of control, the T/C [4] was 93 % of control and the T/C [5] was 92 % of control.

With `NC(=O)N/N=C/c1cccs1` the T/C (dose: 3.12 mg/kg/injection, schedule: Q01DX009 (ip), vehicle: saline with Tween-80) was 97 % of control, the T/C [6] was 97 % of control and the T/C [7] was 93 % of control.

With `Cc1ccc(N=C=C(c2ccccc2)c2ccccc2)cc1` the T/C [3] was 123 % of control and the T/C [4] was 119 % of control.

In the case of `CSC(C=P(c1ccccc1)(c1ccccc1)c1ccccc1)=Nc1ccccc1`, the T/C [6] is reported as 101 % of control, the T/C [7] is reported as 101 % of control and the T/C [8] is reported as 102 % of control and 103 % of control.

`CC/C=C\C/C=C\CC1(O)C=C(Cl)C(=O)C1C(OC(C)=O)C(OC(C)=O)C(CCCC(=O)OC)OC(C)=O` (stereo not given) was tested, and the T/C (dose: 2.25 mg/kg/injection, schedule: Q01DX005 (ip), vehicle: Klucel (hydroxypropylcellulose) (HPC)) was 103 % of control, the T/C (dose: 4.5 mg/kg/injection, schedule: Q01DX005 (ip), vehicle: Klucel (hydroxypropylcellulose) (HPC)) was 94 % of control and the T/C (dose: 9.0 mg/kg/injection, schedule: Q01DX005 (ip), vehicle: Klucel (hydroxypropylcellulose) (HPC)) was 100 % of control. For the same compound, the T/C (dose: 18.0 mg/kg/injection, schedule: Q01DX005 (ip), vehicle: Klucel (hydroxypropylcellulose) (HPC)) was 95 % of control and the T/C (dose: 36.0 mg/kg/injection, schedule: Q01DX005 (ip), vehicle: Klucel (hydroxypropylcellulose) (HPC)) was 95 % of control.

For `O=C1Cc2ccccc2C(=O)N1CCN1CCOCC1`, the T/C (dose: 100.0 mg/kg/injection, schedule: Q01DX001 (ip), vehicle: saline) was 101 % of control and the T/C (dose: 200.0 mg/kg/injection, schedule: Q01DX001 (ip), vehicle: saline) was 108 % of control.

For `CCOC(=O)c1ccc(NC(=S)Nc2ccccc2C(F)(F)F)cc1`, the T/C [3] was 100 % of control, the T/C [4] was 100 % of control and the T/C [5] was 92 % of control.

In the case of `Cc1nn(-c2ccccc2)nc1CBr`, the T/C [1] is reported as 97 % of control and the T/C [2] is reported as 106 % of control.

For `COC(=O)c1ccc(=O)c2nc3/c(=C/O)c(O)c(C)c(=O)c3[nH]c12`, the T/C (dose: 6.25 mg/kg/injection, schedule: Q01DX005 (ip), vehicle: other) was 117 % of control and the T/C (dose: 12.5 mg/kg/injection, schedule: Q01DX005 (ip), vehicle: other) was 122 % of control.

`Oc1c(CN2CCCC2)cc(Nc2cc(/C=C/c3ccc(Cl)cc3)nc(/C=C\c3ccc(Cl)cc3)n2)cc1CN1CCCC1` was tested, and the T/C (dose: 0.62 mg/kg/injection, schedule: Q01DX009 (ip), vehicle: saline with Tween-80) was 103 % of control, the T/C (dose: 1.25 mg/kg/injection, schedule: Q01DX009 (ip), vehicle: saline with Tween-80) was 112 % of control and the T/C (dose: 2.5 mg/kg/injection, schedule: Q01DX009 (ip), vehicle: saline with Tween-80) was 105 % of control. The T/C (dose: 5.0 mg/kg/injection, schedule: Q01DX009 (ip), vehicle: saline with Tween-80) was 106 % of control and the T/C (dose: 10.0 mg/kg/injection, schedule: Q01DX009 (ip), vehicle: saline with Tween-80) was 92 % of control.

In the case of `CCOC(=O)C1=C(c2ccccc2)SC(c2ccccc2)N(C(C)C)C1=O` (stereo not given), the T/C [8] is reported as 106 % of control, the T/C [9] is reported as 107 % of control and the T/C [10] is reported as 100 % of control.

With `CCOP(=O)(CC(=O)O)OCC` the T/C (dose: 50.0 mg/kg/injection, schedule: Q01DX009 (ip), vehicle: saline) was 100 % of control, the T/C (dose: 100.0 mg/kg/injection, schedule: Q01DX009 (ip), vehicle: saline) was 102 % of control and the T/C (dose: 200.0 mg/kg/injection, schedule: Q01DX009 (ip), vehicle: saline) was 93 % of control.

In the case of `Cc1cc(O)c2c(c1)C(=O)c1cc(O)cc(OC3OC(CO)C(O)C(O)C3O)c1C2=O` (stereo not given), the T/C (dose: 5.0 mg/kg/injection, schedule: Q01DX009 (ip), vehicle: saline) is reported as 105 % of control, the T/C (dose: 10.0 mg/kg/injection, schedule: Q01DX009 (ip), vehicle: saline) is reported as 105 % of control and the T/C (dose: 20.0 mg/kg/injection, schedule: Q01DX009 (ip), vehicle: saline) is reported as 89 % of control.

In the case of `NC(=O)C1(N(CCO)CCO)CCCC1`, the T/C (dose: 50.0 mg/kg/injection, schedule: Q01DX005 (ip), vehicle: saline) is reported as 104 % of control, the T/C (dose: 100.0 mg/kg/injection, schedule: Q01DX005 (ip), vehicle: saline) is reported as 98 % of control and the T/C (dose: 200.0 mg/kg/injection, schedule: Q01DX005 (ip), vehicle: saline) is reported as 105 % of control.

In the case of `CCC(=O)OC(C)COc1ccc(C(C)(C)C)cc1` (stereo not given), the T/C [10] is reported as 107 % of control, the T/C [11] is reported as 114 % of control and the T/C (dose: 400.0 mg/kg/injection, schedule: Q01DX009 (ip), vehicle: saline with Tween-80) is reported as 117 % of control.

`C1CN1c1nc(N2CC2)nc(N2CC2)n1` was tested, and the T/C (dose: 0.05 mg/kg/injection, schedule: Q01DX009 (ip), vehicle: saline) was 111 % of control, the T/C (dose: 0.13 mg/kg/injection, schedule: Q01DX009 (ip), vehicle: saline) was 115 % of control and the T/C (dose: 0.2 mg/kg/injection, schedule: Q01DX009 (ip), vehicle: saline) was 159 % of control. The T/C (dose: 0.25 mg/kg/injection, schedule: Q01DX009 (ip), vehicle: saline) was 150 % of control and 169 % of control, the T/C (dose: 0.4 mg/kg/injection, schedule: Q01DX009 (ip), vehicle: saline) was 235 % of control and the T/C (dose: 0.5 mg/kg/injection, schedule: Q01DX009 (ip), vehicle: saline) was 106 % of control and 120 % of control and 246 % of control. The T/C (dose: 1.0 mg/kg/injection, schedule: Q01DX009 (ip), vehicle: saline) was 88 % of control.

`Cn1ncc2c(N)ncnc21` was tested, and the T/C [9] was 118 % of control, the T/C [12] was 109 % of control and the T/C [13] was 123 % of control.

In the case of `Cc1cc2c3ccccc3[nH]c(=O)n2n1`, the T/C (dose: 50.0 mg/kg/injection, schedule: Q04DX003 (ip), vehicle: saline) is reported as 101 % of control, the T/C [10] is reported as 100 % of control and the T/C [12] is reported as 110 % of control. For the same compound, the T/C (dose: 100.0 mg/kg/injection, schedule: Q04DX003 (ip), vehicle: saline) was 101 % of control, the T/C [11] was 110 % of control and the T/C [13] was 120 % of control. For the same compound, the T/C (dose: 200.0 mg/kg/injection, schedule: Q04DX003 (ip), vehicle: saline) was 105 % of control, the T/C (dose: 400.0 mg/kg/injection, schedule: Q04DX003 (ip), vehicle: saline with Tween-80) was 100 % of control and the T/C (dose: 400.0 mg/kg/injection, schedule: Q04DX003 (ip), vehicle: saline) was 98 % of control.

`CSc1ncc(CO)c(N)n1` was tested, and the T/C (dose: 100.0 mg/kg/injection, schedule: Q04DX003 (ip), vehicle: Klucel (hydroxypropylcellulose) (HPC)) was 90 % of control, the T/C (dose: 200.0 mg/kg/injection, schedule: Q04DX003 (ip), vehicle: Klucel (hydroxypropylcellulose) (HPC)) was 95 % of control and the T/C (dose: 400.0 mg/kg/injection, schedule: Q04DX003 (ip), vehicle: Klucel (hydroxypropylcellulose) (HPC)) was 95 % of control.

With `O=C1CSC(=S)N1N1C(=O)CSC1=S` the T/C [3] was 107 % of control, the T/C [4] was 102 % of control and the T/C [5] was 96 % of control.
